Common to all, as to assay: DTP human tumour cell line panel, 48 h
Assay [1] has as its system COLO 205 colon.
Assay [2] has as its system EKVX NSCLC.
Assay [3] relates to LOX IMVI melanoma.
For assay [4], the system named is MCF7 breast.
The test system of assay [5] is NCI-H460 lung.
The test system of assay [6] is NCI/ADR-RES ovarian.
In assay [7] the test system is OVCAR-4 ovarian.
Assay [8] deals with SNB-75 CNS.
The test system of assay [9] is T-47D breast.
Assay [10] relates to TK-10 renal.

Experimental findings from PubChem BioAssay (NCI) are described below.

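Where inhibition never reached the appropriate level, the endpoint shown equals the highest concentration tested. Otherwise, values were interpolated linearly from a five-concentration, 48-hour dose response in 96-well plates. GI50 marks 50% less growth. TGI is the concentration that stops growth completely.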

The term TGI denotes the concentration at which net growth stops. Regarding `CN1C(=O)C(O)CC1c1cccc(C(F)(F)F)c1` (stereo unspecified), the TGI in [1], in [2], in [3], in [4], in [5] and in assay [6] was > 100 µM each time. Further, the TGI in assay [7], in [8], in assay [9] and in [10] was > 100 µM in each case.
For `O=C1CC(n2cccc2)c2c(Br)sc(Br)c21` (stereo unspecified), the TGI stood at 30.7 µM in [1]; 33.3 µM in assay [2]; 21.7 µM in assay [3]; 26.9 µM in [4]; 36.6 µM in assay [5]; 69.6 µM in assay [6]. Also, the TGI was 33.4 µM in assay [7], 35.1 µM in [8], 46.3 µM in assay [9] and 45.4 µM in assay [10].
Regarding `Cc1nc(-c2cc3cc(Cl)ccc3oc2=O)cc2c1c(=O)oc1ccc(Cl)cc12`, the TGI in assay [1], in assay [2], in assay [3], in [4], in assay [5] and in [6] was > 100 µM each time. Further, the TGI in [9] and in [10] was > 100 µM in each case.
Turning to `CCOC(=O)C1(C(F)(F)F)N=C(CC)OC(N2CCOCC2)=N1` (stereo unspecified), the total growth inhibition concentration (TGI) in [1], in assay [2], in [3], in [4], in assay [5] and in [6] was > 100 µM throughout. Further, the TGI in assay [7], in assay [8], in assay [9] and in assay [10] was > 100 µM throughout.
Turning to `Cn1c2ccccc2n2c3ncccc3c(=S)c(C#N)c12`, the TGI in [1], in assay [2], in [3], in assay [4], in assay [5] and in assay [6] was > 100 µM each time. In addition, the TGI in assay [7], in assay [8] and in assay [9] was > 100 µM throughout.
In the case of `COC(=O)c1c(C)nc(C)c(NO)c1-c1ccccc1C(F)(F)F`, the TGI in [1] is 70.2 µM; in assay [2], > 100 µM; in assay [3], > 100 µM; in assay [4], 39.2 µM; in [5], > 100 µM; in [6] it was 38.4 µM. The TGI is 39.2 µM in [7], 66.1 µM in assay [9] and 37.4 µM in assay [10].
Regarding `CC(=O)Nc1cc(Nc2cc(=O)[nH]c(=O)[nH]2)ccc1C`, the TGI in assay [1], in assay [2], in assay [3], in assay [4], in assay [5] and in assay [6] was > 100 µM each time. Moreover, the TGI in assay [7], in assay [8] and in assay [10] was > 100 µM in each case.
With `CC(=O)CC(=O)CCC(=O)O`, the total growth inhibition concentration (TGI) in assay [1], in assay [2], in [3], in assay [5] and in assay [10] was > 100 µM throughout.
Consider `COc1c(C)c(C/C=C(\C)CC/C=C(\C)CCC=C(C)C)c(OC)c(OC)c1OC`, for which the TGI in [1], in assay [2], in [3], in assay [4], in [5] and in assay [6] was > 100 µM in each case. The TGI in assay [7], in [8] and in assay [10] was > 100 µM each time.
Broadly, the GI50 is the concentration that inhibits growth by half. Consider `COc1ccccc1CNCCCCCCCCCCCCN1C(=O)c2ccc3c4c(ccc(c24)C1=O)C(=O)N(CCCCCCCCCCCCNCc1ccccc1OC)C3=O`, for which the GI50 in [1] was > 50 µM; in [2], > 50 µM; in [7], > 50 µM; in [8], 2 µM; in assay [9], > 50 µM; in assay [10], 0.795 µM. The TGI was > 50 µM in assay [1]; > 50 µM in [2]; > 50 µM in [7]; 46.9 µM in assay [8]; > 50 µM in [9]; 1.47 µM in [10].
Consider `CC(=O)/C(=C\c1ccc(Cl)c(Cl)c1)C(=O)C(C)CN(C)C` (stereo unspecified), for which the TGI in assay [1] was found to be 24.4 µM; in [2] it was 27.8 µM; in assay [3], 6.14 µM; in assay [4], 22.4 µM; in [5], 48.9 µM; in assay [6], 72.5 µM. For the same compound, the results for the TGI in [9] and in assay [10] were 12.3 µM and 5.82 µM, respectively.
In the case of `C#CCC1(C(=O)OCC)C(=O)c2ccccc2N(C)C1=O` (stereo unspecified), the TGI in assay [1], in assay [2], in assay [3], in assay [5], in assay [8] and in assay [10] was > 100 µM each time.
For `CC1CC/C(=C\c2ccc(Cl)cc2)c2nc(N)c(C#N)c(-c3ccc(Cl)cc3)c21` (stereo unspecified), the TGI in assay [1], in assay [2], in assay [3], in assay [4], in assay [6] and in [7] was > 100 µM throughout. The TGI in assay [8], in assay [9] and in assay [10] was > 100 µM in each case.
`C/C(=N\Nc1nc2ccccc2[nH]1)c1cc2ccccc2cn1`: the total growth inhibition concentration (TGI) in assay [2] was 1.35 µM; in [3], 1.48 µM; in [4], 2.31 µM; in assay [5], 1.45 µM; in [6], 1.16 µM; in assay [7], 2.41 µM. The TGI in assay [8] came to 1.56 µM; in assay [9] it was 1.12 µM; in assay [10], 5.16 µM.
Turning to `COc1ccc(CCN2CCc3c(C)c(C#N)c4nc5ccccc5n4c32)cc1OC`, the TGI is 89.8 µM in assay [1]; > 100 µM in assay [3]; > 100 µM in assay [4]; > 100 µM in [5]; > 100 µM in assay [6]; > 100 µM in [7]. Besides, the TGI in [8] was 88.7 µM; in [10], > 100 µM.
